Laboratory results taken from ChEMBL document CHEMBL5518240 (J Med Chem, 2024).
Active and inactive are the calls of the source. No cut-off for these calls is given here.

Columns and labels:
[1] = biological target: T1, Protein cereblon/CREB-binding protein (Homo sapiens, UniProt Q92793+Q96SW2); assay: In vivo PROTAC activity at CBP/CRBN in human VCaP cells xenografted in SCID mouse assessed as reduction in CBP protein at 1 mg/kg, po measured after 3 hrs; type: functional, organism-based; design: scale not given: the % may be the effect or the level left
Target sequence in this assay (Q92793 2-2442 limits assumed): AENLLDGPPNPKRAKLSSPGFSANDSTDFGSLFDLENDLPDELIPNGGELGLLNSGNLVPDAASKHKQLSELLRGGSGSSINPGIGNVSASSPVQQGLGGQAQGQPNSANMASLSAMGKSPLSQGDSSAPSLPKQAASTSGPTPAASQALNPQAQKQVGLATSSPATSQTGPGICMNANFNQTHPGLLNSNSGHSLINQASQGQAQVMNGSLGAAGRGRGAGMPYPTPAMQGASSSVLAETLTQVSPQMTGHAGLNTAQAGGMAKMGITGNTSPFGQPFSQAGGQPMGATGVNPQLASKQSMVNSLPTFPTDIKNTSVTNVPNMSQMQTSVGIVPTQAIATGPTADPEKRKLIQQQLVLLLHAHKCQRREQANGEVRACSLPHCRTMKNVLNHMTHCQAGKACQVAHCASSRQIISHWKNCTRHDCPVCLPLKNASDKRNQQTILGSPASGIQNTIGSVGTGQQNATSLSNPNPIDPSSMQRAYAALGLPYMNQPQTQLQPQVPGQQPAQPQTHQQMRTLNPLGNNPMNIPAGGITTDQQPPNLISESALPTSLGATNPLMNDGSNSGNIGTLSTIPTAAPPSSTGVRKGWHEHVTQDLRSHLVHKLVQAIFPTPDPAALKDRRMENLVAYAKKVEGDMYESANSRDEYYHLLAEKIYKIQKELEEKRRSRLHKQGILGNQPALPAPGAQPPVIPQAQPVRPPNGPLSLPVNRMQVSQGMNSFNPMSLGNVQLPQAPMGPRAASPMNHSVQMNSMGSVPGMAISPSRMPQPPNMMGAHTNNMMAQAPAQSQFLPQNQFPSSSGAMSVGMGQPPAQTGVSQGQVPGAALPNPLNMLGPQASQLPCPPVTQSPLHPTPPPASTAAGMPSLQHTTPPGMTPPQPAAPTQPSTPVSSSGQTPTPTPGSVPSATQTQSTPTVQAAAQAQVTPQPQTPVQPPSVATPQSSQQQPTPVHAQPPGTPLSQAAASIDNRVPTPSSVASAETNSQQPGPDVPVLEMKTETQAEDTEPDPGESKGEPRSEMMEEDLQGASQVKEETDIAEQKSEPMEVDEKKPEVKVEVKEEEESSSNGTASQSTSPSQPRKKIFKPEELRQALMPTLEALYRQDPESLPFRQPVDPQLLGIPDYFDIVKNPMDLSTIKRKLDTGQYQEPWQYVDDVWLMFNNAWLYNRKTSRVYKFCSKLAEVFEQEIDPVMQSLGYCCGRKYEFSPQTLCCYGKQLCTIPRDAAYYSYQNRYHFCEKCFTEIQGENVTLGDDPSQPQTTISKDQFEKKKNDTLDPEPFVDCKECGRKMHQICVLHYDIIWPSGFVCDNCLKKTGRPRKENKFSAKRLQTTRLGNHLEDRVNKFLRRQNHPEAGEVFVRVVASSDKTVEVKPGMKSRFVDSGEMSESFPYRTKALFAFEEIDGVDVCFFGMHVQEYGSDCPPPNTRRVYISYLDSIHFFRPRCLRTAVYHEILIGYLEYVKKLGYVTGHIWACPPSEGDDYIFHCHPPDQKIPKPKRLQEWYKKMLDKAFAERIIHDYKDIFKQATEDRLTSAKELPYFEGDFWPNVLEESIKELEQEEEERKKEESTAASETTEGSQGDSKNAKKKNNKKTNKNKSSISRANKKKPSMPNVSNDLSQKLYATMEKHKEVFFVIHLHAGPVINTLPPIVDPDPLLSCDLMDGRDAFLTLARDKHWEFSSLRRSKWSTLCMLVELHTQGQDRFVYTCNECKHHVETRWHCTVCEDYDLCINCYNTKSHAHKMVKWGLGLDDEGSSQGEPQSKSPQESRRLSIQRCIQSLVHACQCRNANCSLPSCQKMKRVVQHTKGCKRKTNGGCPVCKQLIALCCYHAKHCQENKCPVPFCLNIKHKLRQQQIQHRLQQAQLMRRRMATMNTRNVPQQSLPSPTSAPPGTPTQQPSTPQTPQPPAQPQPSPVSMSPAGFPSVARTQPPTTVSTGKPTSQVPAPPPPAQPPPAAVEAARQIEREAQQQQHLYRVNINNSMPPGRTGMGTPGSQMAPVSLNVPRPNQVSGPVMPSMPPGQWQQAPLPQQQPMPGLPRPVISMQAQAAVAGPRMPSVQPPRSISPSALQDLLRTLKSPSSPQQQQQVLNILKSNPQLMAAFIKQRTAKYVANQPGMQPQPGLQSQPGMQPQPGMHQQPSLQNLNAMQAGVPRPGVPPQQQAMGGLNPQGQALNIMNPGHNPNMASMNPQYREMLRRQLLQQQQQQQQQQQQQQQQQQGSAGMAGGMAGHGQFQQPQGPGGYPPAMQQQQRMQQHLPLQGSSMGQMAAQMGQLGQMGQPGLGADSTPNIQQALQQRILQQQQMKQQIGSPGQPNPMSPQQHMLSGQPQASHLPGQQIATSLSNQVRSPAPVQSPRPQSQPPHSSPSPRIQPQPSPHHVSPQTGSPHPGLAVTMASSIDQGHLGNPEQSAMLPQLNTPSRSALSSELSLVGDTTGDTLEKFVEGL
Target sequence in this assay (Q96SW2 whole entry partner): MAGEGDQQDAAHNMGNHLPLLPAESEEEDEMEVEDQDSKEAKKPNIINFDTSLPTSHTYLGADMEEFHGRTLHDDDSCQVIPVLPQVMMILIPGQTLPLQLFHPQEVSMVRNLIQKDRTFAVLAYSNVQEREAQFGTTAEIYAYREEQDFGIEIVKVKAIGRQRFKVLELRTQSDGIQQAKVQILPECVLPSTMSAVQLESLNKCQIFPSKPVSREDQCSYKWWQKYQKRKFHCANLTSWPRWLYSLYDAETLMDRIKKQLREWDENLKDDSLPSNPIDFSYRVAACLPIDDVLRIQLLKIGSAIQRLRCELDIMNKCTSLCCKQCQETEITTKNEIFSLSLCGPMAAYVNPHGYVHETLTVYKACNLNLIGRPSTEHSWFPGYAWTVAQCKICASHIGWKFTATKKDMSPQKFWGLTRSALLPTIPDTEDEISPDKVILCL

[2] = biological target: T1, Protein cereblon/CREB-binding protein; assay: PROTAC activity at CBP/CRBN in human VCaP cells assessed as protein degradation incubated for 4 hrs by Western blot analysis; type: cell-based
[3] = biological target: T1, Protein cereblon/CREB-binding protein; assay: PROTAC activity at CBP/CRBN in AR positive human VCaP cells assessed as maximal protein degradation at 333.3 nM incubated for 4 hrs by Western blot analysis relative to control; type: cell-based
Target sequence in this assay (Q92793 2-2442 limits assumed): as the sequence (Q92793 2-2442 limits assumed) above
Target sequence in this assay (Q96SW2 whole entry partner): as the sequence (Q96SW2 whole entry partner) above

[4] = biological target: T2, Protein cereblon/Histone acetyltransferase p300 (Homo sapiens, UniProt Q09472+Q96SW2); assay: PROTAC activity at p300/CRBN in AR positive human VCaP cells assessed as maximal protein degradation at 0.46 nM incubated for 4 hrs by Western blot analysis relative to control; type: cell-based
[5] = biological target: T2, Protein cereblon/Histone acetyltransferase p300; assay: PROTAC activity at p300/CRBN in AR positive human VCaP cells assessed as maximal protein degradation at 1.4 nM incubated for 4 hrs by Western blot analysis relative to control; type: cell-based
[6] = biological target: T2, Protein cereblon/Histone acetyltransferase p300; assay: PROTAC activity at p300/CRBN in AR positive human VCaP cells assessed as maximal protein degradation at 4.1 nM incubated for 4 hrs by Western blot analysis relative to control; type: cell-based
[7] = biological target: T2, Protein cereblon/Histone acetyltransferase p300; assay: PROTAC activity at p300/CRBN in AR positive human VCaP cells assessed as maximal protein degradation at 111 nM incubated for 4 hrs by Western blot analysis relative to control; type: cell-based
[8] = biological target: T2, Protein cereblon/Histone acetyltransferase p300; assay: PROTAC activity at p300/CRBN in AR positive human VCaP cells assessed as maximal protein degradation at 333 nM incubated for 4 hrs by Western blot analysis relative to control; type: cell-based
[9] = biological target: T2, Protein cereblon/Histone acetyltransferase p300; assay: PROTAC activity at p300/CRBN in AR positive human VCaP cells assessed as maximal protein degradation at 1000 nM incubated for 4 hrs by Western blot analysis relative to control; type: cell-based
[10] = AUC in male ICR mouse at 3 mg/kg, po measured upto 24 hrs by LC-MS/MS analysis; type: ADME, organism-based; settings: in vivo
[11] = Apparent permeability coefficient across basolateral to apical side in human Caco-2 cells at 10 uM incubated for 120 mins by LC-MS/MS analysis; type: ADME, cell-based; settings: caco-2, 2 h
[12] = Efflux ratio of apparent permeability coefficient across basolateral to apical side over apical to basolateral side in human Caco-2 cells at 10 uM incubated for 120 mins by LC-MS/MS analysis; type: ADME, cell-based; settings: caco-2, 2 h
[13] = biological target: T1, Protein cereblon/CREB-binding protein; assay: PROTAC activity at CBP/CRBN in human LNCaP cells assessed as protein degradation incubated for 4 hrs by Western blot analysis; type: cell-based
[14] = biological target: T1, Protein cereblon/CREB-binding protein; assay: PROTAC activity at CBP/CRBN in human LNCaP cells assessed as maximal protein degradation at 1 uM incubated for 4 hrs by Western blot analysis relative to control; type: cell-based
Target sequence in this assay (Q92793 2-2442 limits assumed): as the sequence (Q92793 2-2442 limits assumed) above
Target sequence in this assay (Q96SW2 whole entry partner): as the sequence (Q96SW2 whole entry partner) above

VCaP [15] = assay: Antiproliferative activity against AR positive human VCaP cells assessed inhibition of cell growth measured after 4 days by CellTiter-Glo Luminescent cell viability assay; type: functional, cell-based; settings: 96 h
VCaP [16] = assay: Potency index, ratio of GNE-049 IC50 to test compound IC50 for antiproliferative activity against AR positive human VCaP cells assessed inhibition of cell growth measured after 4 days by CellTiter-Glo Luminescent cell viability assay; type: functional; settings: time 4 day
CWR22R [17] = assay: Potency index, ratio of GNE-049 IC50 to test compound IC50 for antiproliferative activity against AR positive human 22Rv1 cells assessed inhibition of cell growth measured after 4 days by CellTiter-Glo Luminescent cell viability assay; type: functional; settings: time 4 day
CWR22R [18] = assay: Potency index, ratio of ARV-110 IC50 to test compound IC50 for antiproliferative activity against AR positive human 22Rv1 cells assessed inhibition of cell growth measured after 4 days by CellTiter-Glo Luminescent cell viability assay; type: functional; settings: time 4 day
LNCaP [19] = assay: Potency index, ratio of ARV-110 IC50 to test compound IC50 for antiproliferative activity against AR positive human LNCaP cells assessed inhibition of cell growth measured after 4 days by CellTiter-Glo Luminescent cell viability assay; type: functional; settings: time 4 day
[20] = biological target: T2, Protein cereblon/Histone acetyltransferase p300; assay: PROTAC activity at p300/CRBN in human 22Rv1 cells assessed as reduction in protein level at 100 nM incubated for 4 hrs by multiplexed quantitative proteomics analysis relative to control; type: cell-based; design: scale not given: the % may be the effect or the level left
[21] = biological target: T1, Protein cereblon/CREB-binding protein; assay: PROTAC activity at CBP/CRBN in human 22Rv1 cells assessed as reduction in protein level at 100 nM incubated for 4 hrs by multiplexed quantitative proteomics analysis relative to control; type: cell-based; design: scale not given: the % may be the effect or the level left
Target sequence in this assay (Q92793 2-2442 limits assumed): as the sequence (Q92793 2-2442 limits assumed) above
Target sequence in this assay (Q96SW2 whole entry partner): as the sequence (Q96SW2 whole entry partner) above

CWR22R [22] = assay: Effect on other proteins on global level in human 22Rv1 cells at 100 nM incubated for 4 hrs by multiplexed quantitative proteomics analysis relative to control; type: functional, cell-based
LNCaP [23] = assay: Reduction in KLK3 gene expression in AR positive human LNCaP cells assessed as reduction in mRNA level measured after 6 hrs by qRT-PCT analysis relative to control; type: functional, cell-based; settings: dose 0.1-1000 nM
LNCaP [24] = assay: Reduction in c-Myc gene expression in AR positive human LNCaP cells assessed as reduction in mRNA level measured after 6 hrs by qRT-PCT analysis relative to control; type: functional, cell-based; settings: dose 0.1-1000 nM
[25] = Reduction in c-Myc gene expression in AR positive human VCaP cells assessed as reduction in mRNA level at 1 nM measured after 6 hrs by qRT-PCT analysis relative to control; type: functional
[26] = Reduction in KLK3 gene expression in AR positive human 22Rv1 cells assessed as reduction in mRNA level at 10 nM measured after 6 hrs by qRT-PCT analysis relative to control; type: functional, CWR22R
[27] = biological target: T1, Protein cereblon/CREB-binding protein; assay: In vivo PROTAC activity at CBP/CRBN in human VCaP cells xenografted in SCID mouse assessed as reduction in CBP protein at 3 mg/kg, po measured after 3 hrs; type: functional, organism-based; design: scale not given: the % may be the effect or the level left
Target sequence in this assay (Q92793 2-2442 limits assumed): as the sequence (Q92793 2-2442 limits assumed) above
Target sequence in this assay (Q96SW2 whole entry partner): as the sequence (Q96SW2 whole entry partner) above

[28] = Plasma concentration in CB17 SCID mouse xenografted with human VCaP cells at 3 mg/kg, po measured after 24 hrs by LC-MS/MS analysis; type: ADME, organism-based
[29] = Drug exposure in CB17 SCID mouse xenografted with human VCaP cells assessed compound concentration in tumor at 1 mg/kg, po measured after 3 hrs by LC-MS/MS analysis; type: ADME, organism-based, Neoplasm; settings: read-out: Drug uptake
[30] = Drug exposure in CB17 SCID mouse xenografted with human VCaP cells assessed compound concentration in tumor at 1 mg/kg, po measured after 24 hrs by LC-MS/MS analysis; type: ADME, organism-based, Neoplasm; settings: in vivo, BLD = below limit of detection
[31] = Drug exposure in CB17 SCID mouse xenografted with human VCaP cells assessed compound concentration in tumor at 3 mg/kg, po measured after 24 hrs by LC-MS/MS analysis; type: ADME, organism-based, Neoplasm; settings: in vivo, BLD = below limit of detection
VCaP [32] = assay: Antitumor activity against human VCaP cells xenografted in CB17 SCID mouse model assessed as tumor growth inhibition at 0.3 mg/kg, po qd scheduled 5 days in a week measured on day 63; type: functional; settings: 1512 h, time 63 day, read-out: TGI
VCaP [33] = assay: Antitumor activity against human VCaP cells xenografted in CB17 SCID mouse model assessed as tumor growth inhibition at 1 mg/kg, po qd scheduled 5 days in a week measured on day 63; type: functional; settings: 1512 h, time 63 day, read-out: TGI

Activity [1]: > 95%
DC50 [2]: 0.3 nM
Activity [3]: 78%
Activity [4]: 80%
Activity [5]: 97%
Activity [6]: 100%
Activity [7]: 100%
Activity [8]: 94%
Activity [9]: 75%
AUC at 24 h [10]: 15500 ng·h/mL
Papp [11]: 2.3 10^-6 cm/s
Ratio [12]: 1.2
DC50 [13]: 0.3 nM
Emax [14]: 90%
IC50 (VCaP [15]): 2 nM
Activity [20]: 79%
Activity [21]: 50%
Activity [27]: > 95%
concentration at 24 h [28]: 21 ng/mL
concentration at 3 h [29]: 30 ng/mL
Drug uptake [30]: Bld
Drug uptake [31]: Bld
SMILES: CC(=O)N1CCc2c(c(N3CCCc4cc(-c5cnn(C)c5)c(C(F)F)cc43)nn2[C@H]2CC[C@H](CN3CCN(c4ccc5c(c4)C(=O)N(C4CCC(=O)NC4=O)C5=O)CC3)CC2)C1 (stereo partly drawn)
Ratio IC50 (VCaP [16]): 100
Ratio IC50 (CWR22R [17]): 100
Ratio IC50 (CWR22R [18]): >50
Ratio IC50 (LNCaP [19]): >50
Activity (CWR22R [22]): inactive
inhibition (LNCaP [23]): Dose-Dependent Effect
inhibition (LNCaP [24]): Dose-Dependent Effect
inhibition at 0.001 µM [25]: > 95%
inhibition at 0.01 µM [26]: 75%
inhibition in vivo at 0.3 mg/kg (VCaP [32]): 73%
inhibition in vivo at 1 mg/kg (VCaP [33]): 87%
